Paper PMC10372924, “The Jasmine (Jasminum sambac) Genome Provides Insight into the Biosynthesis of Flower Fragrances and Jasmonates” (Genomics, Proteomics & Bioinformatics, 2022)

Biological target: T1, JsTPS3 (GST-JsTPS3) (Jasminum sambac, UniProt A0A8T9EC85)
T1 construct: gene TPS3; full-length CDS in pGEX-6p-1, N-terminal GST tag kept, E. coli Rosetta (DE3), ~98 kDa with tag
T1 sequence (A0A8T9EC85 1-540): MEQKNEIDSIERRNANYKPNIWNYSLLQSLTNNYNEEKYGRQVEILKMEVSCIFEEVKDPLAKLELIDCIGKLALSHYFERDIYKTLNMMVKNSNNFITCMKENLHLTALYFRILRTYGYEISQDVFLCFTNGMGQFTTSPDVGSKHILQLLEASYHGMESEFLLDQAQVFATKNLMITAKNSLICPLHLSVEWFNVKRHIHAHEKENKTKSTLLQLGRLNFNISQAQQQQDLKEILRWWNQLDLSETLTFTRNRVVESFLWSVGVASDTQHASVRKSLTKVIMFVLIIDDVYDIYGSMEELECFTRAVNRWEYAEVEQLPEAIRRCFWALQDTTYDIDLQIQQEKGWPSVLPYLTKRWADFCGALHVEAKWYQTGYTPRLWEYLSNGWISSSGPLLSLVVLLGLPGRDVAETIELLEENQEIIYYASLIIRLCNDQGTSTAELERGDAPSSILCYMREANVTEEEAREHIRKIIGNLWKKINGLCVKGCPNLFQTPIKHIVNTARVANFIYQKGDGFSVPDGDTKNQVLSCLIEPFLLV
Test: GC-Orbitrap MS detection of trans-beta-ocimene and beta-ocimene formed
Type: biochemical
Conditions: 60 uM GPP; 30 mM HEPES pH 7.5, 5 mM DTT, 25 mM MgCl2; 30 °C 1 h, then 45 °C 15 min; 10 or 15 ug enzyme in 1 ml

## CC(C)=CCC/C(C)=C/COP(=O)(O)OP(=O)(O)O [GPP, geranyl pyrophosphate]
  GC-Orbitrap MS detection of trans-beta-ocimene and beta-ocimene formed: recombinant JsTPS3 protein exerts TPS activity by catalyzing GPP into trans-β-ocimene and β-ocimene
